{"source": "patent US12343377B2", "about": "“Combination therapies comprising a hypomethylation agent for treating cancer” (ALX Oncology Inc., priority 2020, dated 2025)", "key": {"[1]": {"test_system": "calreticulin on the surface of MV4-11 cells", "assay": "Analysis of calreticulin cell-surface expression, MV4-11", "type": "cell-based, human", "conditions": "for expression of the pro-phagocytic signal calreticulin in the MV411 AML cell line: FIG. 3B", "procedure": "(§1) To detect changes in calreticulin expression levels in human acute myeloid leukemia cell lines HL60, OCI-AML3 and MV4-11, cells were incubated with either 2.5 pM or 75 nM of azacitidine (Selleckchem) in complete growth medium (RPMI1640, 10% FBS) in a 37° C. 5% CO2 incubator for 72 hrs. Cells grown in complete growth medium was used as a control for calreticulin baseline expression. After incubation, cells were harvested and washed once in staining buffer (PBS, 2% FBS), stained in PBS with fixable live/dead stain (Invitrogen) for 1 hour at 4° C., washed once in staining buffer and incubated with 500 ng/mL of calreticulin-AF647 (clone 1G6A7, Novus). After a 1 hour incubation at 4° C., cells were washed twice in staining buffer and fixed in 0.5% paraformaldehyde. Cells were analyzed on an Attune (ThermoScientific), and subsequent data analysis using Flowjo 10.6.\n(§2) HL60 is a TP53null FLT3 wt cell line; OCI-AML3 is TP53 wt and FLT3 wt; and MV4-11 is TP53 wt and FLT3-ITD.\n(§3) The effect of azacitidine or venetoclax on the expression levels of calreticulin on the cell surfaces of MV4-11 and primary AML cells from two different human patients was also tested."}, "[2]": {"test_system": "calreticulin on primary AML blasts", "assay": "Analysis of calreticulin cell-surface expression, primary AML blasts", "type": "cell-based", "conditions": "two human patients; FIG. 3B", "procedure": "as §3"}, "[3]": {"test_system": "CD47 on the cell surfaces of MV4-11", "assay": "CD47 cell-surface expression, MV4-11", "type": "cell-based, human", "conditions": "FIG. 3C", "procedure": "(§4) In another set of assays, the effect of azacitidine or venetoclax on the expression levels of CD47 on the cell surfaces of MV4-11 and primary AML cells from two different human patients was tested."}, "[4]": {"test_system": "CD47 on primary AML blasts", "assay": "CD47 cell-surface expression, primary AML blasts", "type": "cell-based", "conditions": "two human patients; FIG. 3C", "procedure": "as §4"}, "[5]": {"conditions": "cited from earlier work"}, "[6]": {"test_system": "HL60-LUC2 acute myeloid leukemic model", "assay": "Disseminated HL60-LUC2 systemic leukemic model, Drug A and venetoclax", "conditions": "monotherapy; Drug A 30 mg/kg IP, venetoclax 100 mg/kg oral gavage, Q3D 5 doses; FIG. 8", "description": "The HL60LUC2 (ATCC) cell line was injected through the tail vein of NOD-SCID female mice at a concentration of 7.5×10^6 cells per in RPMI 1640. Bioluminescence imaging (BLI) acquisition and analysis were performed using the IVIS Spectrum (Perkin Elmer) to monitor tumor growth. Firefly D-luciferin (Regis Technologies) was diluted to 15 mg/ml stock in phosphate-buffered saline and filtered before use. Groups of mice were placed in the specimen chamber and injected with 200 μl of D-luciferin intraperitoneally (IP). BLI whole-body signal was acquired at approximately 10 minutes post injection. BLI flux values were serially monitored twice a week with initial scans acquired three days post inoculation of mice. Living Image Software (Perkin Elmer) was used to quantify BLI average total flux values (photons/second, p/s) following the manual construction of regions of interest over the entire mouse body. […] Drug A-treated mice were dosed by IP injection at 30 mg/kg, five times total at three days apart. Animals were sacrificed when the total flux reached 1E11 or loss in body weight of greater than 20%.\nVenetoclax and Drug A therapies were initiated 4 days post engraftment and dosed every 3 days for a total of 5 doses."}, "HL60 cells": {"test_system": "HL60 cells", "assay": "In vitro phagocytosis assay, HL60 cells by human monocyte-derived macrophages", "type": "cell-based", "conditions": "single agent, compared to untreated cells; FIG. 1A", "description": "CD14^+ monocytes were purified by negative selection using the Classical Monocytes Isolation Kit, human (Miltenyi Biotec) and LS columns (Miltenyi Biotec) according to the manufacturer's protocol. CD14^+ monocytes were seeded into 150 mm tissue culture dishes (Corning) at 6 million cells per dish in 25 mL medium comprised of RPMI complete media, supplemented with 50 ng/mL M-CSF (Miltenyi Biotec), 10% FBS (Thermo Fisher Scientific), 1% penicillin/streptomycin, and 1% GlutaMAX. Cells were cultured for seven to eleven days.\nTarget cells, HL60 and OCI-AML3 cells, were washed once in PBS and labeled with the Celltrace CFSE Cell Proliferation kit (Thermo Fisher Scientific) in suspension with 300 nM CFSE (carboxyfluorescein succinimidyl ester) according to the manufacturer's instructions and resuspended in RPMI complete media. Target cells were incubated overnight with two-fold serial dilutions of azacitidine between 39 nM to 2.5 μM in RPMI complete media. Prior to incubation with macrophages, cells were resuspended in RPMI. Macrophages were detached from culture plates by washing once with PBS and incubation in TrypLE Select for 20 minutes at 37° C. […]\nBriefly HL60 cells and OCI-AML3 cells (i.e., “target cells”) were labeled with CFSE (carboxyfluorescein succinimidyl ester) and treated with azacitidine (aza) for 48 hours. […] Macrophage cells were pelleted, stained, and analyzed via flow cytometry. […]"}, "[7]": {"assay": "Human PBMC viability assay", "type": "cell-based", "conditions": "CD11c+ dendritic cells in human PBMC cultures, 1.25 pM azacitidine alone, FIG. 2, read-out: reduction of the viability of CD11c^+ dendritic cells", "procedure": "PBMCs were counted and plated in complete RPMI. Drug A alone or in combination azacitidine was added to the PBMCs. Following 72-hour or five day incubation at 37° C., cells were stained with a fixable viability dye followed by staining with cell surface markers: CD3, CD19, CD14, CD56, CD16, CD11c, and HLADR (Biolegend). Cells were processed for flow cytometry by Attune NxT and analyzed by FlowJo 10.3. Viability gating strategy included double singlet exclusion by FSC height and FSC width followed by cell type surface marker then viability gate. CD11c DCs were identified as lineage negative (CD3, CD19, CD14, CD16 and CD56) HLADR^+ CD11c^+. Percent viable cells were tabulated using GraphPad Prism 8.\nDendritic cells (DCs) are antigen-presenting cells (also known as accessory cells) of the mammalian immune system. They are believed to act as messengers between the innate and the adaptive immune systems."}, "[8]": {"test_system": "calreticulin on the surface of HL60 cells", "assay": "Analysis of calreticulin cell-surface expression, HL60", "type": "cell-based, human", "conditions": "with increased concentrations of azacitidine, 72 hrs; FIG. 3A", "procedure": "as §1, §2"}, "[9]": {"test_system": "calreticulin on the surface of OCI-AML3 cells", "assay": "Analysis of calreticulin cell-surface expression, OCI-AML3", "type": "cell-based, human", "conditions": "with increased concentrations of azacitidine, 72 hrs; FIG. 3A", "procedure": "as §1, §2"}, "HL60 tumor xenografts": {"test_system": "HL60 tumor xenografts", "assay": "Subcutaneous HL60 leukemia xenograft model", "type": "in vivo, mice", "procedure": "(§5) Tumors were monitored until average size of all tumors reached 105 mm^3 for HL60, 75 mm^3 for MV4-11 and 112 mm^3 for OCI-AML3. […] Mice in HL60 and OCI-AML3 tumor models were dosed intraperitoneally (IP) five times, three days apart at 5 mg/kg for azacitidine, and six times, three days apart at 10 mg/kg for Drug A. MV4-11 tumor bearing mice were dosed IP three times per week at 5 mg/kg for azacitidine and 10 mg/kg for Drug A. Tumors were measured in two dimensions with calipers and tumor volume was calculated as: length×width×width×0.5, where length was the larger of the two measurements. Animals were sacrificed when tumor reached a volume of ˜2000 mm^3.\n(§6) In this Example, the anti-tumor activity of Drug A in combination with azacitidine (aza) was assessed mice bearing either HL60, OCI-AML3 and MV4-11 human leukemia tumor xenografts. (See Example 1 for experimental details.) HL60 is a TP53null FLT3 wt cell line; OCI-AML3 is TP53 wt and FLT3 wt; and MV4-11 is TP53 wt and FLT3-ITD.\n(§7) Mice bearing HL60 xenografted tumors were randomized to 4 groups of 4-5 mice each. One group of mice was given (a) Drug A at 10 mg/kg IP (Q3D, 6 doses total), (b) aza at 5 mg/kg IP (Q3D, 5 doses total), (c) both Drug A and aza (at the doses and administration schedule for each single agent), or (d) vehicle. Mice bearing OCI-AML3 xenografts were similarly randomized and treated. […]"}, "[10]": {"test_system": "OCI-AML3 tumor xenografts", "assay": "Subcutaneous OCI-AML3 leukemia xenograft model", "type": "in vivo, mice", "conditions": "day 20, Drug A 10 mg/kg IP Q3D 6 doses, aza 5 mg/kg IP Q3D 5 doses", "procedure": "as §5, §6, §7"}, "MV4-11 tumor xenografts": {"test_system": "MV4-11 tumor xenografts", "assay": "Subcutaneous MV4-11 leukemia xenograft model", "type": "in vivo, mice", "conditions": "day 26, Drug A 10 mg/kg and aza 5 mg/kg IP three times per week", "procedure": "as §5, §6\nMice bearing MV4-11 xenografts were randomized into 4 groups of 9-10 each. One group of mice was given Drug A at 10 mg/kg IP (3 times per week), the second group of mice was given aza at 5 mg/kg IP (three times per week), the third group was given both Drug A and aza (at the doses and administration schedule for each single agent, and the fourth group was given vehicle. […]"}, "[11]": {"test_system": "HL60-LUC2 acute myeloid leukemic model", "assay": "Disseminated HL60-LUC2 systemic leukemic model, Drug A and azacitidine", "type": "in vivo, mice", "procedure": "After transplantation of HL60-LUC2 cells by intravenous tail injection into immunodeficient NSG mice (7.5E6 cells/animal), engraftment was confirmed by bioluminescence imaging and mice were randomized into 4 groups (10 mice/group). Treatment was performed as shown Table A below.\nTreatment was continued until mice received 14 doses of single agent Drug A, single agent azacitidine, or Drug A in combination with azacitidine."}, "MCL-1": {"target": "MCL-1 (Homo sapiens, UniProt Q07820)", "sequence (Q07820 whole entry, species assumed)": "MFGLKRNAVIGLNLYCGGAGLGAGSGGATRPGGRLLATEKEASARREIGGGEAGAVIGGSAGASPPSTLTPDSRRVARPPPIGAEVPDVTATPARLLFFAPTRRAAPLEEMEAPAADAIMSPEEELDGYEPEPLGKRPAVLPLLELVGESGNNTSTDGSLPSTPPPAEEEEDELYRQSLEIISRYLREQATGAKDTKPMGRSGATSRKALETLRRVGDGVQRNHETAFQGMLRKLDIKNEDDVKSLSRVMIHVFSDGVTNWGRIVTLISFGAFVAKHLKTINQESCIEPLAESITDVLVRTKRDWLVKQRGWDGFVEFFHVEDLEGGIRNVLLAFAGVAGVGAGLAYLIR", "conditions": "selectivity profile; cited from earlier work"}, "BFL-1 (BCL2A1/A1)": {"target": "T1, BFL-1 (BCL2A1/A1) (Homo sapiens, UniProt Q16548)", "T1 sequence (Q16548 1-175)": "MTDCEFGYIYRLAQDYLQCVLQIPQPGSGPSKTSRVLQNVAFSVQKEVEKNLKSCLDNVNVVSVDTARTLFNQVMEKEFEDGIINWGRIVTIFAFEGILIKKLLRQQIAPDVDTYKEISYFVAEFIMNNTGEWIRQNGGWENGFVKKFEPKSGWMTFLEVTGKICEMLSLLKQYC", "conditions": "selectivity profile; cited from earlier work"}, "BCL-XL": {"target": "BCL-XL (Homo sapiens, UniProt Q07817)", "sequence (Q07817 whole entry, species assumed)": "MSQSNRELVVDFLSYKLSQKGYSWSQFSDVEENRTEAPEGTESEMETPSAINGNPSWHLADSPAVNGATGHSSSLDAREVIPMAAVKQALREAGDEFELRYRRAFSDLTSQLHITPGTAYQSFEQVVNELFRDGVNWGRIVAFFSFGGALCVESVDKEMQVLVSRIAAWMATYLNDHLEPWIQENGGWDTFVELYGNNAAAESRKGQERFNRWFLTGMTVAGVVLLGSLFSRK", "conditions": "selectivity profile; cited from earlier work"}, "[12]": {"test_system": "BCL-XL-dependent cells, such as platelets", "conditions": "cited from earlier work"}}}
{"smiles": "CC1(C)CCC(CN2CCN(c3ccc(C(=O)NS(=O)(=O)c4ccc(NCC5CCOCC5)c([N+](=O)[O-])c4)c(Oc4cnc5[nH]ccc5c4)c3)CC2)=C(c2ccc(Cl)cc2)C1", "note": "[venetoclax, 4-(4-{[2-(4-chlorophenyl)-4,4dimethylcyclohex-1-en-1-yl]methyl}piperazin-1-yl)-N-({3-nitro-4-[(tetrahydro-2H-pyran-4ylmethyl)amino]phenyl}sulfonyl)-2-(1H-pyrrolo[2,3-b]pyridin-5-yloxy)benzamide]", "values": [{"measurement": "expression of the pro-phagocytic signal calreticulin in the MV411 AML cell line", "setting": "[1]", "result": "increase"}, {"measurement": "expression of the pro-phagocytic signal calreticulin in primary AML blasts", "setting": "[2]", "result": "increase"}, {"measurement": "expression of the anti-phagocytic signal CD47 in the MV411 AML cell line", "setting": "[3]", "result": "increase"}, {"measurement": "expression of the anti-phagocytic signal CD47 in primary AML blasts", "setting": "[4]", "result": "increase"}, {"measurement": "aqueous solubility", "setting": "[5]", "result": "very low"}, {"measurement": "tumor growth", "setting": "[6]", "result": "moderate tumor growth inhibition"}]}
{"smiles": "Nc1ncn([C@@H]2O[C@H](CO)[C@@H](O)[C@H]2O)c(=O)n1", "note": "[azacitidine, 4-amino-1-[(2R,3R,4S,5R)-3,4-dihydroxy-5-(hydroxymethyl)oxolan-2-yl]-1,3,5-triazin-2-one]", "values": [{"measurement": "macrophage-mediated phagocytosis of HL60 cells", "setting": "HL60 cells", "result": "stimulated macrophage-mediated phagocytosis of HL60 cells slightly"}, {"measurement": "cytotoxicity at 1.25 pM", "setting": "[7]", "result": "~40", "unit": "%"}, {"measurement": "expression of calreticulin on the surface of HL60 cells", "setting": "[8]", "result": "increased"}, {"measurement": "expression of calreticulin on the surface of OCI-AML3 cells", "setting": "[9]", "result": "increased"}, {"measurement": "expression of the pro-phagocytic signal calreticulin in the MV411 AML cell line", "setting": "[1]", "result": "increase"}, {"measurement": "expression of calreticulin on the surface of MV4-11 cells", "setting": "[1]; with increased concentrations of azacitidine, 72 hrs, FIG. 3A", "result": "increased"}, {"measurement": "expression of the pro-phagocytic signal calreticulin in primary AML blasts", "setting": "[2]", "result": "increase"}, {"measurement": "expression of the anti-phagocytic signal CD47 in the MV411 AML cell line", "setting": "[3]", "result": "increase"}, {"measurement": "expression of the anti-phagocytic signal CD47 in primary AML blasts", "setting": "[4]", "result": "increase"}, {"measurement": "HL60 tumor growth", "setting": "HL60 tumor xenografts; day 20, compared to vehicle control, FIG. 4A", "result": "minimally inhibited"}, {"measurement": "% tumor growth inhibition (TGI)", "setting": "HL60 tumor xenografts; day 20, HL60, Drug A 10 mg/kg IP Q3D 6 doses, aza 5 mg/kg IP Q3D 5 doses", "result": 42, "unit": "%"}, {"measurement": "% tumor growth inhibition (TGI)", "setting": "[10]", "result": 33, "unit": "%"}, {"measurement": "% tumor growth inhibition (TGI)", "setting": "MV4-11 tumor xenografts", "result": 49, "unit": "%"}, {"measurement": "tumor growth", "setting": "[11]; 14 doses, Drug A 30 mg/kg, azacitidine 5 mg/kg, FIG. 5C", "result": "moderate tumor growth inhibition"}, {"measurement": "Day by which all mice succumbed", "setting": "[11]; second set of experiments, single agent, Q3D 14 doses, FIG. 5D", "result": "~85", "unit": "days"}]}
{"smiles": "O=C(c1cc(-c2cc3c(cc2C(=O)N2Cc4ccccc4C[C@H]2CN2CCOCC2)OCO3)n2c1CCCC2)N(c1ccccc1)c1ccc(O)cc1", "note": "[Drug S55746, (S)—N-(4-hydroxyphenyl)-3-(6-(3-(morpholinomethyl)-1,2,3,4-tetrahydroisoquinoline-2-carbonyl)benzo[d][1,3]dioxol-5-yl)-N-phenyl-5,6,7,8-tetrahydroindolizine-1-carboxamide]", "values": [{"measurement": "binding to MCL-1", "setting": "MCL-1", "result": "no significant binding"}, {"measurement": "binding to BFL-1 (BCL2A1/A1)", "setting": "BFL-1 (BCL2A1/A1)", "result": "no significant binding"}, {"measurement": "affinity for BCL-XL", "setting": "BCL-XL", "result": "poor affinity"}, {"measurement": "cytotoxic activity on BCL-XL-dependent cells, such as platelets", "setting": "[12]", "result": "no cytotoxic activity"}]}
